Test: Light resistance of PMMA polymer film (residual amount after metal halide lamp irradiation)
Assay type: physicochemical
Conditions: 0.2 mass % compound in PMMA film, 50-μm thick; metal halide lamp (about 290 nm or less cut), 90 mW/cm^2, 63° C., humidity 50%, irradiation for 600 hours; absorbance at maximum absorption wavelength
Description: A binder solution was prepared by dissolving 22 mass % of a PMMA resin (“DIANAL BR-80”, trade name, produced by Mitsubishi Rayon Co., Ltd.) in methylene chloride. […] The coating solution was applied on glass as a base material by means of a 200 μm blade and dried at 100° C. for 10 minutes to form a 50-μm thick coating, whereby a film was produced. […] The residual amount was calculated according to the following formula: Residual amount (%)=100×(absorbance after irradiation)/(absorbance before irradiation)
Incidentally, the absorbance is a value measured at the maximum absorption wavelength of each compound.

| Structure (SMILES) | Residual Amount (%) |
| --- | --- |
| CCCCCCOc1ccc(-c2nc(-c3ccccc3)nc(-c3ccccc3)n2)c(O)c1 [Comparative Compound A] | 44 |
| CCCCCCCCOc1ccc(-c2nc(-c3ccc(C)cc3C)nc(-c3ccc(C)cc3C)n2)c(O)c1 [Comparative Compound B] | 14 |

Source: patent US8957140B2, “Triazine derivative, ultraviolet absorber, and resin composition” (FUJIFILM Corporation, priority 2009, dated 2015)
